{
  "source": "patent US20060078890A1",
  "about": "“Methods for identifying parkinson's disease therapeutics” (priority 2004, published 2006)",
  "key": {"PC12-αSyn cells": {"test_system": "PC12-αSyn cells", "experiment": "MPP+ toxicity in α-synuclein overexpressing PC12 cells, cell death by LDH release", "assay_type": "cell-based", "details": "for LDH release (cell death) induced by MPP+ toxicity; neuroprotective effect: PC12-αSyn cells pretreated for two hours prior to 1 mM MPP+ for 24 hours, increasing concentrations", "description": "A PC12 cell line was transfected to express wild type human α-synuclein using the Tet-Off system (Clontech Laboratories, Palo Alto, Calif.). α-Synuclein expression was suppressed using 1 μg/mL doxycycline (Clontech) in culture media before expression is required. α-Synuclein expressing PC12 cells (PC12-αSyn) were grown in Dulbecco's modified Eagle's medium (DMEM) (Invitrogen, Calsbad, Calif.) supplemented with 10% heat-inactivated horse serum, 5% heat-inactivated fetal calf serum (Hyclone, Logan, Utah), 4 mM L-glutamine, streptomycin, and penicillin G (Fisher, Pittsburgh, Pa.). Cells were maintained at 37° C., in 5% CO2 humid atmosphere.\nThe effects of various neuroprotective agents were examined in the PC12-αSyn cell line. To determine MPP^+ neurotoxicity in α-synuclein- and naïve PC12 cells, cell death was measured by LDH release assays.\n(§1) Cell death will be assessed by quantifying intra- and extracellular lactate dehydrogenase (LDH). The ratio between the amount of LDH released and the amount remaining in the cells produces a measure of cell death. [formula]\n(§2) A sample of the medium will be the extracellular LDH sample. Cells were washed with PBS and extracted in cell lysis buffer (50 mM Tris pH 8.0, 150 mM NaCl, 5 mM EDTA, 1% Triton X-100, 10 μg/ml Aprotinin, 25 μg /ml Leupeptin, 10 μg/ml Pepstatin, 1 mM PMSF; all protease inhibitors purchased from Sigma Chemicals, St. Louis, Mo.). The cell homogenate were centrifuged at 4° C. for 3 minutes at 14,000 rpm. The supernatant were taken for intracellular LDH sample. LDH activity will be quantified using an LDH assay kit (Roche, Indianapolis, Ind.)."}, "[1]": {"test_system": "TH-positive/GIRK2-positive dopaminergic neurons of primary VM culture", "experiment": "MPP+ toxicity in primary ventral mesencephalic (VM) culture, stereological count of TH-positive/GIRK2-positive neurons", "assay_type": "cell-based, rat", "details": "for protective effect against MPP+ toxicity on GIRK2-positive/TH-positive neurons: pretreated 2 hours prior to 10 μM MPP+", "description": "VMDA cultures were obtained from E15 Sprague-Dawley rat (Charles River, Mass.) ventral mesencephalon (VM). Tissue was mechanically dissociated with a pasteur pipette. The cells were resuspended in DMEM containing heat-inhibited horse serum (10%), glucose (6.0 mg/ml), penicillin, streptomycin, and 2 mM glutamine (Gibco). Cell suspensions containing 4×10^5 cells were plated on a coverslip in a 24-well plate, precoated with a 1:500 diluted solution of polyornithine and fibronectin in 50 mM sodium borate (pH 7.4) overnight.\nThese cultures contained a mixed cell population having approximately 40% of TH-positive neurons at 5 days in vitro (DIV) with both A9- and A10-like dopaminergic neurons (FIG. 4A). […] The cultures were treated with MPP^+ at day 5 for 48 hours using concentrations ranging from 0.1 to 10 μM. Cells were fixed with paraformaldehyde for immunostaining of TH and GIRK2 48 hours after MPP^+ treatment.\nThe cultures were pretreated with the polypeptide factors 2 hours prior to 10 μM MPP^+ treatment.\nRoutine indirect immunofluorescence was performed on 4% paraformaldehyde fixed VM culture. The fixed cells were incubated in a blocking solution consisting of 10% normal donkey serum (Jackson Immuno Research Laboratories Inc, West Grove, Pa.) and 0.1% Triton X-100 (Sigma, St. Louis, Mo.) in 0.1M phosphate buffered saline (PBS) for 1 hour at room temperature before transferring to the primary antibody solution. The primary antibodies were diluted in blocking solution and the cells were incubated overnight at 4° C. The primary antibodies used were raised against tyrosine hydroxylase (sheep anti-TH, 1:300, Pel-Freez Biologicals, Rogers, Ak.) and GIRK2 (rabbit; 1:80, Alomone Laboratories, Jerusalem, Israel). The cells were rinsed three times in 0.1 M PBS for five minutes each before the application of the secondary antibody solution for one hour at room temperature. The secondary antibodies were diluted in 10% normal donkey serum in 0.1M PBS. The secondary antibodies were conjugated to spectrally distinct fluorescent dyes to facilitate color separation (Alexa Fluor 488 conjugated donkey anti-sheep and Alexa Fluor 594 conjugated donkey anti-rabbit, Molecular Probes, Eugene, Oreg.). After rinsing in triplicate for ten minutes each in 0.1 M PBS, the cells were counterstained with 0.0005% Hoechst 33342 (Molecular Probes) in 0.1M Tris buffered saline. The coverslips containing the fixed cells were then rinsed in 0.1M PBS followed by distilled water and mounted onto slides using an aqueous mountant (Gel/Mount, Biømeda Corp., Calif.). Control coverslips immunostained without primary antibody were used to assess specificity of the technique.\nDesign based stereology was performed by counters blinded to experimental groups on the stained coverslips using an integrated Axioskop 2 microscope (Carl Zeiss, Thornwood, N.Y.) and Stereoinvestigator image capture equipment and software (MicroBrightField, Williston, Vt.). A contour was drawn around each coverslip to identify the area of interest. A physical disector probe was utilized and counting frames were placed in a systematically random manner at approximately 125 sites per coverslip. The resultant coefficient of error for the stereological counts was used to assess precision (p<0.05)."}, "DAN cells": {"test_system": "DAN cells", "experiment": "MPP+ toxicity in human dopaminergic neuron precursor (DAN) cells, LDH release", "assay_type": "cell-based", "details": "for LDH release (cell death) in MPP+ treated DAN cells: pretreated for two hours prior to MPP+ (1 mM)", "from_the_text": "DAN cells, which have been used to study neurodegeneration, can be used in the methods of this invention; they express multiple genes of Tables 4 and/or 5, and the expression of these genes following contact with a candidate compound can be measured. […] DAN cells are sensitive to the neurotoxin MPP^+.\nas §1, §2"}, "[2]": {"test_system": "dopaminergic neurons in the substantia nigra", "experiment": "Progressive 6-OHDA lesioned rats, TH immunohistochemistry of striatum and substantia nigra", "assay_type": "in vivo, rat", "details": "unilateral intrastriatal 6-OHDA, total dose 22.5 μg; up to 28 days", "description": "Female Sprague Dawley rats (200-250 g, Charles River, Wilmington, Mass.) receive unilateral intrastriatal stereotaxic injections of 6-OHDA (Sigma, St. Louis, USA) using a 10 μl Hamilton syringe. Intramuscular injections of Acepromazine (3.3 mg/kg, PromAce, Fort Dodge, Iowa) and atropine sulfate (0.2 mg/kg, Phoenix Pharmaceuticals, St. Joseph, Mo.) is given 10 minutes before animals will be anesthetized with ketamine/xylazine (60 mg/kg and 3 mg/kg respectively, i.m.). A concentration of 3.0 μg/μl free base 6-OHDA dissolved in 0.2% ascorbic acid/saline (Sigma) is injected into 3 locations (2.5 μl/site, total dose 22.5 μg) in the right striatum at the following coordinates (calculated from bregma): site 1, AP+1.3, L−2.8, DV−4.5, IB−2.3; site 2, AP+0.2, L−3.0, DV−5.0, IB−2.3; site 3, AP−0.6, L−4.0, DV−5.5, IB−2.3 mm."}},
  "note": "“Also recorded” adds a separate entry of the source. Ends that are not written are not given here.",
  "data": [
    {"molecule": "NT-3: neurotrophic factor known to have elevated expression in A10 dopaminergic neurons", "values": [
      {"measurement": "LDH release (cell death) induced by MPP+ toxicity; neuroprotective effect", "setting": "PC12-αSyn cells", "result": "Significant dose-dependent reductions in LDH release; also recorded: able to protect PC12-α-Syn cells from MPP^+ neurotoxicity in a dose-dependent manner"},
      {"measurement": "protective effect against MPP+ toxicity on GIRK2-positive/TH-positive neurons", "setting": "[1]; primary VM culture", "result": "significant protective effect"},
      {"measurement": "survival of TH and TH/GIRK2 double-labeled neurons against MPP+ toxicity", "setting": "[1]; primary VMDA culture, NT3 at 17 ng/ml, MPP+ 10 μM", "result": "protects the cells against MPP^+ toxicity"},
      {"measurement": "LDH release (cell death) in MPP+ treated DAN cells", "setting": "DAN cells", "result": "significant dose-dependent reduction in LDH release"},
      {"measurement": "LDH release (cell death) in MPP+ treated DAN cells", "setting": "DAN cells; listed as NT3", "result": "protective effect"}
    ]},
    {"molecule": "Vasoactive intestinal peptide (HSDAVFTDNYTRLRKQMAVKKYLNSILN; ends and bridges not checked; UniProt P01282 125-152, looked up) [VIP, neuropeptide elevated in A10 dopaminergic neurons]", "values": [
      {"measurement": "LDH release (cell death) induced by MPP+ toxicity; neuroprotective effect", "setting": "PC12-αSyn cells", "result": "Significant dose-dependent reductions in LDH release; also recorded: dose-dependent neuroprotective effects"},
      {"measurement": "neuroprotective effect in primary VM culture (TH and GIRK2 immunostaining)", "setting": "[1]; 48 hours after 10 μM MPP+, 10^−6 M VIP", "result": "neuroprotective effect"},
      {"measurement": "protective effect against MPP+ toxicity on GIRK2-positive/TH-positive neurons", "setting": "[1]; primary VM culture", "result": "significant protective effect"}
    ]},
    {"molecule": "calcitonin/calcitonin gene-related peptide alpha [CGRP]", "values": [
      {"measurement": "LDH release (cell death) induced by MPP+ toxicity; neuroprotective effect", "setting": "PC12-αSyn cells", "result": "Significant dose-dependent reductions in LDH release; also recorded: dose-dependent neuroprotective effects"}
    ]},
    {"molecule": "gastrin releasing peptide (VPLPAGGGTVLTKMYPRGNHWAVGHLM; ends and bridges not checked; UniProt P07492 24-50, looked up) [GRP, neuropeptide elevated in A10 dopaminergic neurons]", "values": [
      {"measurement": "LDH release (cell death) induced by MPP+ toxicity; neuroprotective effect", "setting": "PC12-αSyn cells", "result": "Significant dose-dependent reductions in LDH release; also recorded: dose-dependent neuroprotective effects"},
      {"measurement": "protective effect against MPP+ toxicity on GIRK2-positive/TH-positive neurons", "setting": "[1]; primary VM culture", "result": "significant protective effect"}
    ]},
    {"molecule": "Fibroblast growth factor 1 [FGF1]", "values": [
      {"measurement": "LDH release (cell death) induced by MPP+ toxicity; protection by FGF1", "setting": "PC12-αSyn cells; PC12-αSyn cells, FIG. 2D", "result": "significantly reduced; also recorded: able to protect PC12-αSyn cells from MPP^+ in a dose-dependent manner"}
    ]},
    {"molecule": "cholecysokinin-8 (DYMGWMDF; ends and bridges not checked; UniProt P06307 96-103, looked up) [CCK-8, neuropeptide elevated in A10 dopaminergic neurons]", "values": [
      {"measurement": "LDH release (cell death) induced by MPP+ toxicity; neuroprotective effect", "setting": "PC12-αSyn cells", "result": "Significant dose-dependent reductions in LDH release; also recorded: dose-dependent neuroprotective effects"}
    ]},
    {"molecule": "NCCc1cc(O)c(O)cc1O", "note": "[6-OHDA, 6-hydroxydopamine]", "values": [
      {"measurement": "loss of dopaminergic fibers in the striatum and neuronal cell bodies in the substantia nigra", "setting": "[2]", "result": "progressive degeneration of dopaminergic neuronal cell bodies"}
    ]},
    {"molecule": "COC(=O)C[C@H](NC(=O)OC(C)(C)C)C(=O)CF", "note": "[BAF, reference compound]", "values": [
      {"measurement": "MPP+ susceptibility (LDH release) after pretreatment with neuroprotective agent", "setting": "PC12-αSyn cells; PC12-αSyn cells pretreated", "result": "significantly decreased"}
    ]},
    {"molecule": "C[n+]1ccc(-c2ccccc2)cc1", "note": "[MPP^+, 1-methyl-4-phenylpyridinium, reference compound]", "values": [
      {"measurement": "LDH release in PC12-αSyn cells compared with naive PC12 cells", "setting": "PC12-αSyn cells; intermediate concentration (2.5 mM) of MPP+", "result": "significantly higher LDH release"},
      {"measurement": "vulnerability of TH-positive/GIRK2-positive versus TH-positive/GIRK2-negative cells", "setting": "[1]; primary VM culture, MPP+ 0.1 to 10 μM at day 5 for 48 hours", "result": "more vulnerable"},
      {"measurement": "dose of MPP+ giving maximal toxic insult (LDH release)", "setting": "DAN cells; DAN cells", "result": 2.5, "unit": "mM"}
    ]}
  ]
}
